Laboratory results as given in ChEMBL document CHEMBL5131459, “Semisynthesis and neurotrophic activity studies of novel neomajucin/majucin derivatives as neurotrophin small molecule mimetics” (Bioorg Med Chem Lett, 2022).
The source made the active and inactive calls. The rule behind the calls is not given here.

What was measured:
PC-12 [1] = assay: Neuroprotective activity in […] cells assessed as induction of NGF-mediated neurite outgrowth by measuring differentiation rate of neurite-beating cells at 10 uM incubated for 72 hrs (reference value: 4.27 +/- 0.04 %); type: functional, Rattus norvegicus
PC-12 [2] = assay: Neuroprotective activity in […] cells assessed as induction of NGF-mediated neurite outgrowth by measuring protrusion length extension at 10 uM by methylene blue staining based light microscopic analysis; type: functional, cell-based; conditions: Rattus norvegicus
PC-12 [3] = assay: Neuroprotective activity against MPP+-induced cell injury in […] cells assessed as cell survival rate at 20 uM (reference value: 68.60 +/- 1.06 %); type: functional; conditions: Rattus norvegicus, read-out: Survival
[4] = Cytotoxicity against […] cells assessed as inhibition of cell growth by CCK-8 assay; type: toxicity, cell-based; conditions: rat

Row | SMILES | Activity (PC-12 [1]) [%] | further results
1 | C[C@@H]1CC[C@@]2(O)[C@@]13C[C@@H](OC(=O)[C@@H]3O)[C@@]1(OC(=O)Cc3ccc(Br)cc3)C(=O)OC[C@@]21C | 4.9 | –
2 | C[C@@H]1C[C@@H](OC(=O)CCc2cccc(F)c2)[C@@]2(O)[C@@]13C[C@@H](OC(=O)[C@@H]3O)[C@@]1(OC(=O)CCc3cccc(F)c3)C(=O)OC[C@@]21C | 4.93 | –
3 | C[C@@H]1CC[C@@]2(O)[C@@]13C[C@@H](OC(=O)[C@@H]3O)[C@@]1(O)C(=O)OC[C@@]21C | 8.76 | –
4 | C[C@@H]1CC[C@@]2(O)[C@@]13C[C@@H](OC(=O)[C@@H]3O)[C@@]1(OC(=O)Cc3cccc(Cl)c3)C(=O)OC[C@@]21C | 5.53 | –
5 | C[C@@H]1CC[C@@]2(O)[C@@]13C[C@@H](OC(=O)[C@@H]3O)[C@@]1(OC(=O)CCc3ccc(F)cc3)C(=O)OC[C@@]21C | 8.99 | –
6 | C[C@@H]1C[C@@H](OC(=O)CCc2cccc(Cl)c2)[C@@]2(O)[C@@]13C[C@@H](OC(=O)[C@@H]3O)[C@@]1(OC(=O)CCc3cccc(Cl)c3)C(=O)OC[C@@]21C | 4.54 | –
7 | C[C@@H]1CC[C@@]2(O)[C@@]13C[C@@H](OC(=O)[C@@H]3O)[C@@]1(OC(=O)CCc3ccccc3)C(=O)OC[C@@]21C | 10.04 | –
8 | C[C@@H]1CC[C@@]2(O)[C@@]13C[C@@H](OC(=O)[C@@H]3O)[C@@]1(OC(=O)CCc3cccc(Br)c3)C(=O)OC[C@@]21C | 5.04 | –
9 | C[C@@H]1CC[C@@]2(O)[C@@]13C[C@@H](OC(=O)[C@@H]3O)[C@@]1(OC(=O)CCCCBr)C(=O)OC[C@@]21C | 5.28 | –
10 | C[C@@H]1CC[C@@]2(O)[C@@]13C[C@@H](OC(=O)[C@@H]3O)[C@@]1(OC(=O)Cc3cccc(F)c3)C(=O)OC[C@@]21C | 5.9 | –
11 | C/C=C/C=C/C(=O)O[C@]12C(=O)OC[C@@]1(C)[C@@]1(O)CC[C@@H](C)[C@]13C[C@H]2OC(=O)[C@@H]3O | 11.02 | Activity (PC-12 [2]): Active; viability at 20 µM (PC-12 [3]): 72.5%; IC50 [4]: > 512 µg/mL
12 | C[C@@H]1C[C@@H](OC(=O)CCc2ccc(Cl)cc2)[C@@]2(O)[C@@]13C[C@@H](OC(=O)[C@@H]3O)[C@@]1(O)C(=O)OC[C@@]21C | 5.03 | –
13 | C[C@@H]1CC[C@@]2(O)[C@@]13C[C@@H](OC(=O)[C@@H]3O)[C@@]1(OC(=O)CCc3ccc(Br)cc3)C(=O)OC[C@@]21C | 6.85 | –
14 | C[C@@H]1CC[C@@]2(O)[C@@]13C[C@@H](OC(=O)[C@@H]3O)[C@@]1(OC(=O)Cc3ccc(F)cc3)C(=O)OC[C@@]21C | 5.85 | –
15 | C/C=C/C=C/C(=O)O[C@@H]1C[C@@H](C)[C@@]23C[C@@H](OC(=O)[C@@H]2O)[C@@]2(O)C(=O)OC[C@@]2(C)[C@@]13O | 11.83 | Activity (PC-12 [2]): Active; viability at 20 µM (PC-12 [3]): 68.5%; IC50 [4]: > 512 µg/mL
16 | C[C@@H]1C[C@@H](OC(=O)CCc2ccc(Cl)cc2)[C@@]2(O)[C@@]13C[C@@H](OC(=O)[C@@H]3O)[C@@]1(OC(=O)CCc3ccc(Cl)cc3)C(=O)OC[C@@]21C | 5.21 | –
17 | C[C@@H]1C[C@@H](OC(=O)CCc2cccc(Br)c2)[C@@]2(O)[C@@]13C[C@@H](OC(=O)[C@@H]3O)[C@@]1(O)C(=O)OC[C@@]21C | 5.56 | –
18 | C[C@@H]1CC[C@@]2(O)[C@@]13C[C@@H](OC(=O)[C@@H]3O)[C@@]1(OC(=O)Cc3ccc4ccccc4c3)C(=O)OC[C@@]21C | 5.55 | –
19 | C[C@@H]1C[C@@H](OC(=O)CCc2ccccc2)[C@@]2(O)[C@@]13C[C@@H](OC(=O)[C@@H]3O)[C@@]1(O)C(=O)OC[C@@]21C | 9.67 | –
20 | C[C@@H]1C[C@@H](OC(=O)CCc2ccc(Br)cc2)[C@@]2(O)[C@@]13C[C@@H](OC(=O)[C@@H]3O)[C@@]1(OC(=O)CCc3ccc(Br)cc3)C(=O)OC[C@@]21C | 8.73 | –
21 | C[C@@H]1CC[C@@]2(O)[C@@]13C[C@@H](OC(=O)[C@@H]3O)[C@@]1(OC(=O)CCc3cccc(Cl)c3)C(=O)OC[C@@]21C | 4.88 | –

Row | SMILES | Activity (PC-12 [1]) [%] | further results
22 | C[C@@H]1CC[C@@]2(O)[C@@]13C[C@@H](OC(=O)[C@@H]3O)[C@@]1(OC(=O)CCC(=O)c3ccccc3)C(=O)OC[C@@]21C | 8.79 | –
23 | C[C@@H]1C[C@@H](O)[C@@]2(O)[C@@]13C[C@@H](OC(=O)[C@@H]3O)[C@@]1(O)C(=O)OC[C@@]21C | 6.25 | –
24 | C[C@@H]1C[C@@H](OC(=O)CCc2ccc(F)cc2)[C@@]2(O)[C@@]13C[C@@H](OC(=O)[C@@H]3O)[C@@]1(OC(=O)CCc3ccc(F)cc3)C(=O)OC[C@@]21C | 9.41 | –
25 | COc1ccc(CC(=O)O[C@]23C(=O)OC[C@@]2(C)[C@@]2(O)CC[C@@H](C)[C@]24C[C@H]3OC(=O)[C@@H]4O)cc1 | 5.27 | –
26 | C[C@@H]1C[C@@H](OC(=O)CCC(=O)c2ccccc2)[C@@]2(O)[C@@]13C[C@@H](OC(=O)[C@@H]3O)[C@@]1(O)C(=O)OC[C@@]21C | 6.42 | –
27 | C[C@@H]1CC[C@@]2(O)[C@@]13C[C@@H](OC(=O)[C@@H]3O)[C@@]1(OC(=O)CCc3cccc(F)c3)C(=O)OC[C@@]21C | 5.7 | –
28 | C[C@@H]1C[C@@H](OC(=O)CCc2ccc(F)cc2)[C@@]2(O)[C@@]13C[C@@H](OC(=O)[C@@H]3O)[C@@]1(O)C(=O)OC[C@@]21C | 10.96 | Activity (PC-12 [2]): Active
29 | C/C=C/C=C/C(=O)O[C@@H]1C[C@@H](C)[C@@]23C[C@@H](OC(=O)[C@@H]2O)[C@@]2(OC(=O)/C=C/C=C/C)C(=O)OC[C@@]2(C)[C@@]13O | 5.13 | –
30 | C[C@@H]1C[C@@H](OC(=O)CCc2ccccc2)[C@@]2(O)[C@@]13C[C@@H](OC(=O)[C@@H]3O)[C@@]1(OC(=O)CCc3ccccc3)C(=O)OC[C@@]21C | 5.47 | –
31 | C[C@@H]1CC[C@@]2(O)[C@@]13C[C@@H](OC(=O)[C@@H]3O)[C@@]1(OC(=O)CCc3ccc(Cl)cc3)C(=O)OC[C@@]21C | 6.05 | –
32 | C[C@@H]1C[C@@H](OC(=O)CCc2cccc(Cl)c2)[C@@]2(O)[C@@]13C[C@@H](OC(=O)[C@@H]3O)[C@@]1(O)C(=O)OC[C@@]21C | 4.69 | –
33 | C[C@@H]1C[C@@H](OC(=O)CCC(=O)c2ccccc2)[C@@]2(O)[C@@]13C[C@@H](OC(=O)[C@@H]3O)[C@@]1(OC(=O)CCC(=O)c3ccccc3)C(=O)OC[C@@]21C | 5.25 | –
34 | C[C@@H]1C[C@@H](OC(=O)CCc2ccc(Br)cc2)[C@@]2(O)[C@@]13C[C@@H](OC(=O)[C@@H]3O)[C@@]1(O)C(=O)OC[C@@]21C | 10.02 | –
35 | C[C@@H]1C[C@@H](OC(=O)CCc2cccc(F)c2)[C@@]2(O)[C@@]13C[C@@H](OC(=O)[C@@H]3O)[C@@]1(O)C(=O)OC[C@@]21C | 5.78 | –
36 | COc1cc(CC(=O)O[C@]23C(=O)OC[C@@]2(C)[C@@]2(O)CC[C@@H](C)[C@]24C[C@H]3OC(=O)[C@@H]4O)cc(OC)c1OC | 6.06 | –
37 | C[C@@H]1CC[C@@]2(O)[C@@]13C[C@@H](OC(=O)[C@@H]3O)[C@@]1(OC(=O)Cc3cccc(Br)c3)C(=O)OC[C@@]21C | 6.91 | –
38 | C[C@@H]1CC[C@@]2(O)[C@@]13C[C@@H](OC(=O)[C@@H]3O)[C@@]1(OC(=O)/C=C/c3ccccc3)C(=O)OC[C@@]21C | 5.38 | –
39 | C[C@@H]1C[C@@H](OC(=O)CCc2cccc(Br)c2)[C@@]2(O)[C@@]13C[C@@H](OC(=O)[C@@H]3O)[C@@]1(OC(=O)CCc3cccc(Br)c3)C(=O)OC[C@@]21C | 5.1 | –
40 | C[C@@H]1CC[C@@]2(O)[C@@]13C[C@@H](OC(=O)[C@@H]3O)[C@@]1(OC(=O)CCCBr)C(=O)OC[C@@]21C | 6.04 | –
41 | C[C@@H]1CC[C@@]2(O)[C@@]13C[C@@H](OC(=O)[C@@H]3O)[C@@]1(OC(=O)Cc3ccc(Cl)cc3)C(=O)OC[C@@]21C | 5.52 | –
